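The compound was tested at five concentrations on cells cultured in 96-well plates, with a 48-hour exposure period. Here, GI50 denotes the concentration required for 50% inhibition of growth.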 Calls of active or inactive are those of the source. Cut-off read from the data, not from the text of the source: active = GI50 up to about 1.1 µM and inactive = higher.
What was measured:
Assay in all cases: NCI-60 cell line screen, 48 h
786-0 = tested on: 786-0
A498 = tested on: A498
A549 = tested on: A549
ACHN = tested on: ACHN
CAKI-1 = tested on: CAKI-1
CCRF-CEM = tested on: CCRF-CEM
COLO 205 = tested on: COLO 205
DU-145 = tested on: DU-145
EKVX = tested on: EKVX
HCC 2998 = tested on: HCC 2998
HCT-116 = tested on: HCT-116
HCT-15 = tested on: HCT-15
HL-60 = tested on: HL-60
HOP-62 = tested on: HOP-62
HOP-92 = tested on: HOP-92
HT-29 = tested on: HT-29
Hs-578T = tested on: Hs-578T
IGROV-1 = tested on: IGROV-1
K562 = tested on: K562
KM12 = tested on: KM12
LOX IMVI = tested on: LOX IMVI
M14 = tested on: M14
MCF7 = tested on: MCF7
MDA-MB-231 = tested on: MDA-MB-231
MDA-MB-435 = tested on: MDA-MB-435
MDA-N = tested on: MDA-N
Malme-3M = tested on: Malme-3M
NCI-H226 = tested on: NCI-H226
NCI-H23 = tested on: NCI-H23
NCI-H460 = tested on: NCI-H460
NCI-H522 = tested on: NCI-H522
NCI/ADR-RES = tested on: NCI/ADR-RES
OVCAR-3 = tested on: OVCAR-3
OVCAR-4 = tested on: OVCAR-4
OVCAR-5 = tested on: OVCAR-5
OVCAR-8 = tested on: OVCAR-8
PC-3 = tested on: PC-3
RPMI-8226 = tested on: RPMI-8226
RXF 393 = tested on: RXF 393
SF-268 = tested on: SF-268
SF-295 = tested on: SF-295
SF-539 = tested on: SF-539
SK-MEL-28 = tested on: SK-MEL-28
SK-MEL-5 = tested on: SK-MEL-5
SK-OV-3 = tested on: SK-OV-3
SN12C = tested on: SN12C
SNB-19 = tested on: SNB-19
SNB-75 = tested on: SNB-75
SR = tested on: SR
SW-620 = tested on: SW-620
T47D = tested on: T47D
TK-10 = tested on: TK-10
U-251 = tested on: U-251
UACC-257 = tested on: UACC-257
UACC-62 = tested on: UACC-62
MOLT-4 = tested on: MOLT-4
UO-31 = tested on: UO-31

CC1(C)N=c2c(ncn2N)=C(C(N)=O)N1
GI50 (786-0): > 100 µM (inactive)
GI50 (A498): > 100 µM (inactive)
GI50 (A549): > 100 µM (inactive)
GI50 (ACHN): > 100 µM (inactive)
GI50 (CAKI-1): > 100 µM (inactive)
GI50 (CCRF-CEM): > 100 µM (inactive)
GI50 (COLO 205): > 100 µM (inactive)
GI50 (DU-145): > 100 µM (inactive)
GI50 (EKVX): > 100 µM (inactive)
GI50 (HCC 2998): > 100 µM (inactive)
GI50 (HCT-116): > 100 µM (inactive)
GI50 (HCT-15): > 100 µM
GI50 (HL-60): > 100 µM (inactive)
GI50 (HOP-62): > 100 µM (inactive)
GI50 (HOP-92): 22.3 µM (inactive)
GI50 (HT-29): > 100 µM (inactive)
GI50 (Hs-578T): > 100 µM (inactive)
GI50 (IGROV-1): > 100 µM (inactive)
GI50 (K562): > 100 µM (inactive)
GI50 (KM12): > 100 µM (inactive)
GI50 (LOX IMVI): > 100 µM (inactive)
GI50 (M14): > 100 µM (inactive)
GI50 (MCF7): > 100 µM (inactive)
GI50 (MDA-MB-231): > 100 µM (inactive)
GI50 (MDA-MB-435): > 100 µM (inactive)
GI50 (MDA-N): > 100 µM (inactive)
GI50 (Malme-3M): > 100 µM (inactive)
GI50 (NCI-H226): > 100 µM (inactive)
GI50 (NCI-H23): > 100 µM (inactive)
GI50 (NCI-H460): > 100 µM (inactive)
GI50 (NCI-H522): > 100 µM (inactive)
GI50 (NCI/ADR-RES): > 100 µM (inactive)
GI50 (OVCAR-3): > 100 µM (inactive)
GI50 (OVCAR-4): > 100 µM (inactive)
GI50 (OVCAR-5): > 100 µM (inactive)
GI50 (OVCAR-8): > 100 µM (inactive)
GI50 (PC-3): > 100 µM (inactive)
GI50 (RPMI-8226): > 100 µM (inactive)
GI50 (RXF 393): > 100 µM (inactive)
GI50 (SF-268): > 100 µM (inactive)
GI50 (SF-295): > 100 µM (inactive)
GI50 (SF-539): > 100 µM (inactive)
GI50 (SK-MEL-28): > 100 µM (inactive)
GI50 (SK-MEL-5): > 100 µM (inactive)
GI50 (SK-OV-3): > 100 µM (inactive)
GI50 (SN12C): > 100 µM (inactive)
GI50 (SNB-19): > 100 µM (inactive)
GI50 (SNB-75): > 100 µM (inactive)
GI50 (SR): > 100 µM (inactive)
GI50 (SW-620): > 100 µM (inactive)
GI50 (T47D): > 100 µM (inactive)
GI50 (TK-10): > 100 µM (inactive)
GI50 (U-251): > 100 µM (inactive)
GI50 (UACC-257): > 100 µM (inactive)
GI50 (UACC-62): > 100 µM (inactive)

COc1ccc(/N=C2\C(=O)Nc3ccc(Br)cc32)cc1
GI50 (786-0): 16.3 µM (inactive)
GI50 (A498): 38.8 µM (inactive)
GI50 (A549): 24.2 µM (inactive)
GI50 (ACHN): 15.4 µM (inactive)
GI50 (CAKI-1): 14.4 µM (inactive)
GI50 (CCRF-CEM): 13.4 µM (inactive)
GI50 (COLO 205): 15.7 µM (inactive)
GI50 (DU-145): 32.3 µM (inactive)
GI50 (EKVX): 17.2 µM (inactive)
GI50 (HCC 2998): 19.2 µM (inactive)
GI50 (HCT-116): 14.2 µM (inactive)
GI50 (HCT-15): 14.3 µM
GI50 (HL-60): 15.6 µM (inactive)
GI50 (HOP-62): 29.2 µM (inactive)
GI50 (HOP-92): 18.2 µM (inactive)
GI50 (HT-29): 23.4 µM (inactive)
GI50 (Hs-578T): 41.5 µM (inactive)
GI50 (K562): 8.67 µM (inactive)
GI50 (KM12): 10.7 µM (inactive)
GI50 (LOX IMVI): 10.1 µM (inactive)
GI50 (M14): 17.5 µM (inactive)
GI50 (MCF7): 14.6 µM (inactive)
GI50 (MDA-MB-231): 13.9 µM (inactive)
GI50 (MDA-MB-435): 13.2 µM (inactive)
GI50 (MDA-N): 13.9 µM (inactive)
GI50 (MOLT-4): 16.6 µM (inactive)
GI50 (Malme-3M): 19.8 µM (inactive)
GI50 (NCI-H226): 16.2 µM (inactive)
GI50 (NCI-H23): 18.2 µM (inactive)
GI50 (NCI-H460): 21.8 µM (inactive)
GI50 (NCI-H522): 9.38 µM (inactive)
GI50 (NCI/ADR-RES): 18.7 µM (inactive)
GI50 (OVCAR-3): 21.7 µM (inactive)
GI50 (OVCAR-5): 23.2 µM (inactive)
GI50 (OVCAR-8): 14.9 µM (inactive)
GI50 (PC-3): 25.3 µM (inactive)
GI50 (RPMI-8226): 5.83 µM (inactive)
GI50 (RXF 393): 18.2 µM (inactive)
GI50 (SF-268): 18.4 µM (inactive)
GI50 (SF-295): 22.8 µM (inactive)
GI50 (SF-539): 16.5 µM (inactive)
GI50 (SK-MEL-28): 31.3 µM (inactive)
GI50 (SK-MEL-5): 11.2 µM (inactive)
GI50 (SK-OV-3): 24.3 µM (inactive)
GI50 (SN12C): 17.2 µM (inactive)
GI50 (SNB-19): 33.4 µM (inactive)
GI50 (SR): 3.58 µM (inactive)
GI50 (SW-620): 16 µM (inactive)
GI50 (T47D): 18.3 µM (inactive)
GI50 (TK-10): 23.6 µM (inactive)
GI50 (U-251): 22.9 µM (inactive)
GI50 (UACC-257): 20.7 µM (inactive)
GI50 (UACC-62): 4.89 µM (inactive)
GI50 (UO-31): 9.82 µM (inactive)
